Test results taken from ChEMBL document CHEMBL1125004, “Chemistry and pharmacology of the non-benzodiazepine anxiolytic enciprazine and related compounds” (1990).

How the values were obtained:
Format in all cases: functional
[1] = organism: Mus musculus; experiment: Effect on hexobarbital induced sleep was determined in hexobarbital potentiation test; Range (172.3-227.4)
[2] = Ratio of ED50 (hexobarbital) to that of ED50 (fighting)
[3] = Ratio of ED50 (rotarod) to that of ED50 (fighting)
[4] = organism: Mus musculus; experiment: Ataxic activity in mice by rotarod test; Range (86.2-116.6)
[5] = system: Mus musculus; experiment: Antiaggressive anxiolytic activity in the electroshock-induced fighting test in mice (po); Range (0.58-2.63)
[6] = system: Mus musculus; experiment: Antiaggressive anxiolytic activity in the electroshock-induced fighting test in mice (po); Range (9.6-16.7)
[7] = system: Mus musculus; experiment: Antiaggressive anxiolytic activity in the electroshock-induced fighting test in mice (po); Range (9.7-19.3)
[8] = system: Mus musculus; experiment: Antiaggressive anxiolytic activity in the electroshock-induced fighting test in mice (po); Range (14.7-24.8)
[9] = organism: Mus musculus; experiment: Effect on alcohol induced sleep was determined in ethanol potentiation test; Range (26.6-77.9)
[10] = organism: Mus musculus; experiment: Ataxic activity in mice by rotarod test; Range (89.6-160.6)
[11] = system: Mus musculus; experiment: Antiaggressive anxiolytic activity in the electroshock-induced fighting test in mice (po); Range (0.9-1.8)
[12] = system: Mus musculus; experiment: Effect on hexobarbital induced sleep was determined in hexobarbital potentiation test (po); Range (36.0-59.6)
[13] = system: Rattus norvegicus; experiment: Antiaggressive anxiolytic activity in the hexagonal maze test in rat after ip administration of 0.3 mg/kg; conditions: route intraperitoneal

SMILES: COc1cc(OCC(O)CN2CCN(c3ccccc3O)CC2)cc(OC)c1OC (stereo not drawn)
- ED50 [1]: 200 mg/kg
- Therapeutic index [2]: 154
- Therapeutic index [3]: 77
- ED50 [4]: 100 mg/kg
- ED50 [5]: 1.3 mg/kg

SMILES: COc1cc(OCC(O)CN2CCN(c3ccc(C)c(C)c3)CC2)cc(OC)c1OC.Cl (stereo not drawn)
- ED50 [6]: 13 mg/kg

SMILES: COc1cc(OCC(O)CN2CCN(c3ccccc3SC)CC2)cc(OC)c1OC.Cl (stereo not drawn)
- ED50 [7]: 14 mg/kg

SMILES: CCOc1ccccc1N1CCN(CC(O)COc2cc(OC)c(OC)c(OC)c2)CC1.Cl (stereo not drawn)
- ED50 [8]: 19 mg/kg

SMILES: COc1ccccc1N1CCN(CC(O)COc2cc(OC)c(OC)c(OC)c2)CC1.Cl (stereo not drawn)
- ED50 [9]: 45.5 mg/kg
- ED50 [10]: 120 mg/kg
- ED50 [11]: 1.4 mg/kg
- ED50 [12]: 46.4 mg/kg
- Prolongation [13]: 3.2%
